Measured values taken from BindingDB's records for doi:10.1021/jm010988n (University of Regensburg, 2002).

Target: Platelet-derived growth factor receptor (Mus musculus)
Assay: The cells were stimulated with PDGF (100 ng/mL) for 10 min at room temperature. Then the cell lysates were analyzed by SDS-PAGE and immunoblotting with anti-phosphotyrosine antibodies. Quantification of IC50 values was based on the intensity of the signal for autophosphorylated PDGF receptor. Titration was done using four to ei

Row | SMILES | IC50 | IC50 (pH 7.4)
1 | O=C(c1cc2ccccc2[nH]1)c1cc2cc(OC(=O)C3CCC3)ccc2[nH]1 [2-(1H-indol-2-ylcarbonyl)-1H-indol-5-yl cyclobutanecarboxylate] | 5.7 µM | 
2 | O=C(c1cc2ccccc2[nH]1)c1cc2cc(OCCCCI)ccc2[nH]1 [5-(4-Iodobutoxy-1H-2-indolyl)(1H-2-indolyl)methanone] |  | 12.5 µM
3 | O=C(c1cc2ccccc2[nH]1)c1cc2cc(OCc3ccccc3)ccc2[nH]1 [5-(benzyloxy)-2-(1H-indol-2-ylcarbonyl)-1H-indole] |  | 20 µM
4 | COc1ccc2[nH]c(C(=O)c3cc4cc(OC)ccc4[nH]3)cc2c1 [Bis(5-methoxy-1H-2-indolyl)methanone] |  | 20 µM
